Data: US20090304744A1, “METHODS OF ENHANCING IMMUNE RESPONSE IN THE INTRADERMAL COMPARTMENT AND COMPOUNDS USEFUL THEREOF” (priority 2003, published 2009)
Where two headings read alike, the source gives them in different places.

Assays:
intradermal tissue = experiment: Excipient operating profile: maximum concentration with Draize score of 2 or less vs tissue depth (slope m)
Source text: The preferred excipients of the invention have a common operating profile in the intradermal space defined by a slope (m) value of greater than 0.125. An exemplary profile for determining the optimal operating profile is depicted in FIG. 35. The slope identifies the change in maximum operating concentration as it relates to tissue depth within the intradermal compartment. […] The concentration of excipient at the first reference point is the highest concentration at the shallowest delivery depth that allows a draize score of 2 or less. […] The concentration of excipient at the second reference point is the highest concentration at the deepest delivery depth that allows a draize score of 2 or less. For example, the distance between the first and second delivery depth can be 2 mm apart and specifically 1 mm and 3 mm deliveries. The operating slope (m) can be described by the following formula: […]
Where C2 equals Cinfinity at D2
Where C1 equals maximum excipient concentration at D1 with a Draize score of 2 or less
Where Dn denotes delivery depth
Tween™ 80 matches the preferred excipient profile. FIG. 35 illustrates an excipient selected for the intradermal tissue according to the instant invention. Tween™ 80 has a profile similar to the “Excipient-A” in the illustration having a slope greater than 0.125. Whereby a 5% v/v soln of Tween™ 80 is at the maximum operating concentration at 1.0 mm depth, and can be used successfully at 10% v/v at the 3 mm depth.

[1] = tested on: Influenza A/Panama/2007/99 (H3N2); experiment: HAI assay after ID microneedle immunization of rats with FLUZONE +/- Tween 80; assay type: in vivo, Brown Norway rats; conditions: for % Seroconversion (HAI Titre ≧ 10) / % Seroprotection (HAI Titre ≧ 40): day 21, Tween 80 at 5% where added
Description: Measurement of HA specific Antibody Titer by HAI: Sera were collected and used as test samples. Fresh cRBC reagent was prepared daily. Sodium Chloride solution (0.9%) was added to wells of a Falcon® Non-Tissue Culture Treated Plate, 96 well, U-Bottom with Low Evaporation Lid. Viral lysate stock (8 HA/50 μl) was added to wells. Appropriate volume of test serum was added to a single row or column of “start wells,” and a serial dilution was performed by transferring 50 μl of the serum dilution from the “start wells” into the next well, creating a 1:2 dilution. When completed, wells contained a serial serum dilution and a constant amount of viral lysate antigen, being 4 HA per well. cRBC reagent (0.5%, 50 μl) was added to each well, including negative control wells, which contained no HA. The assay was allowed to incubate for 45 minutes at room temperature, ensuring that the plate is not jostled. For determination, plates were tilted at a 70-degree angle for 5 minutes, and viewed on alight box.
HAI assays were performed with A-New Caledonia (H1N1), A-Panama (H3N2) and B-Hong Kong antigen as single test antigens and trivalent pools.
Female Brown Norway (BN) rats (n=10/group) were immunized by ID delivery using Microneedles (34 gauge needle inserted into a 3.5″ long catheter to an exposed needle length of 1.0 mm). ID delivery by Microneedles consisted of 2 bolus injections of 100 μl by hand to either side of the lower back of the rat, approximately 10 seconds in duration (each bolus), using an attached 1 cc syringe. Rats were immunized with either of two different doses of the 2003/2004 season of FLUZONE™ (Aventis Pasteur, Swiftwater, Pa.), for a total of 9µg (high dose) or 0.9µg (low dose) hemagglutinin (HA) per rat, 3µg or 0.3µg HA of each strain of influenza in the vaccine (A/New Calcdonia/20/99 H1N1, A/Panama/2007/99H3N2, and B/Hong Kong/1434/2002).
The rats were bled 21 days after immunization and their serum assayed for neutralizing antibody titres using the hemagglutination inhibition (HAI) assay, and for influenza-specific antibody titres by ELISA. Both assays were performed against the H3N2 strain of influenza in the FLUZONE™ formulation to characterize the immune response.

[2] = tested on: Influenza A/Panama/2007/99 (H3N2); experiment: Influenza-specific ELISA titre after ID microneedle immunization of rats with FLUZONE +/- Tween 80; assay type: in vivo, Brown Norway rats; conditions: 5% Tween80 added to low or high dose FLUZONE
Description: Antibody response to FLUZONE™ was measured by coating an influenza antigen (Influenza APR834, purified/inactivated at 2 mg/mL from Charles River SPAFAS or Alternatively New Calcdonia, Panama or B-Hong Kong lysates from Biodesign Inc.) on a microtiter plate (96-well NUNC IMMUNO-PLATE™ with MAXISORP™ surface). The coating solution was approximately 3.8µg/mL of influenza protein in carbonate buffer (Sigma Chemical Co. Cat. C3041). The coating antigen was exposed to the Nunc plate for one hour at 37° C. The coating solution was discarded and replaced with a blocking solution (phosphate buffered saline with Tween™ 20 (PBS-TW20); Sigma Chemical Co. Cat. P-3563) and 5% w/v nonfat dry milk. The blocking solution was exposed to the plate surface for two hours at 37° C. The blocking solution was subsequently discarded.
Female Brown Norway (BN) rats (n=10/group) were immunized by ID delivery using Microneedles (34 gauge needle inserted into a 3.5″ long catheter to an exposed needle length of 1.0 mm). ID delivery by Microneedles consisted of 2 bolus injections of 100 μl by hand to either side of the lower back of the rat, approximately 10 seconds in duration (each bolus), using an attached 1 cc syringe. […]

[3] = tested on: trivalent test antigen (New Calcdonia, Panama and B-Hong Kong); design: species or system Hartley Guinea Pigs; conditions: guinea pig, in vivo
[4] = tested on: influenza antigen (Influenza APR834); assay type: in vivo, Balb/c mice; conditions: ID; for Trend in immune response as indicated by ELISA signal (1:123 serum screening dilution): mice
guinea pig skin = experiment: Guinea pig erythema Draize scoring after ID delivery of excipients; assay type: in vivo, Hartley guinea pigs; conditions: Tween 80 5%, Deoxycholate 0.1%, D-sorbitol 5%, Lutrol 15%; without antigen, 50 ul per injection, 34 gauge 1.0 mm; immediate, 1 h and 24 h readings
Source text: The methods of the invention provide fundamental principles and guidelines whereby optimum parameters may be determined for delivering immunogenic compositions to the dermal compartment (including epidermal and intradermal compartments) wherein the excipients have optimum adjuvant properties and the formulations of the invention have enhanced efficacy in comparison to when the same formulation is delivered using conventional modes of delivery, including intramuscular and subcutaneous delivery. The invention provides methods wherein the formulations of the invention have been screened to have optimum concentration ranges for delivery to the optimum depth of the intradermal compartment such that they have adjuvant properties, resulting in one or more of the following properties: minimal to no skin irritation as determined and assessed using conventional modes of analysis of skin reactions using visual methods such as Draize scoring (For a typical draize scoring analysis see table below); minimal to no hemolysis as determined using standard methods known in the art, and enhanced immune response as measured by enhanced seroconversion and/or enhanced antibody titers.
Erythema Draize scores for various excipients were determined using procedures described in Section 5.4, above. In one study, Tween™ 80 (5%), Deoxycholate (0.1%), D-sorbitol (5%) or Lutrol™ (15%) was administered (50 μl per injection) without the antigen to Hartley guinea pigs using 34 gauge, 1.0 mm needles. […] Deeper administrations will be necessary for deoycholate to be used reliably at this concentration. From left to right, the reading immediately after administration, the one-hour reading and the 24-hour reading.

RBCs = experiment: Hemolysis in blood of swine after ID Tween 80; assay type: in vivo, Yorkshire swine; conditions: 6 x 200 ul doses containing 5.0% Tween 80, 31 g x 1.5 mm needle, blood from systemic circulation
Description: Tween™ 80 Preferred concentrations avoid hemolysis: Surfactants/detergents can lyse RBCs. Blood from Yorkshire swine that received 6×200 ul doses containing 5.0% Tween™ 80 were collected. No hemolysis was observed was in blood taken immediately from the systemic circulation. A 31 g× 1.5 mm needle was used in the study.

`CCCCCCCC/C=C\CCCCCCCC(=O)OCCOCC(OCCO)C1OCC(OCCO)C1OCCO` (centres unmarked) [Tween 80, polysorbate 80] was tested, and the maximum operating concentration (intradermal tissue; 1.0 mm depth) was 5 % v/v, the “concentration that can be used successfully” value (intradermal tissue; 3 mm depth) was 10 % v/v and the “slope (maximum acceptable conc./tissue depth)” value (intradermal tissue; intradermal tissue, 1.0 mm vs 3 mm depth) was “greater than 0.125”. The “increase of mean HAI titre relative to ID delivery of FLUZONE alone” value ([1]; 5% Tween80 added to low or high dose FLUZONE, ID, rats, H3N2) was 5 fold, the “% Seroconversion (HAI Titre ≧ 10)” value ([1]; IDHigh (9 ug HA per rat)) was 100% and the “% Seroprotection (HAI Titre ≧ 40)” value ([1]; IDHigh (9 ug HA per rat)) was 100%. The “% Seroconversion (HAI Titre ≧ 10)” value ([1]; IDLow (0.9 ug HA per rat)) was 100%, the “% Seroprotection (HAI Titre ≧ 40)” value ([1]; IDLow (0.9 ug HA per rat)) was 90% and the “increase of mean ELISA titre relative to ID delivery of FLUZONE alone” value [2] was “up to 15 fold”. The draize score (swine skin; 2% Tween 80, 3.0 mm delivery, approximately 20-24 hours after administration, Yorkshire swine) was 0.0, the “tolerability in the ID space” value (swine skin; 5% Tween 80, swine, 31 g 1.5 mm needle) was “well tolerated” and the tolerability (swine skin; 10%, delivered to 1-2 mm depth, Yorkshire swine) was “not well tolerated”. For the same compound, the “Erythema Draize scores (tolerability)” value (swine skin; Tween 80 5%, Deoxycholate 0.1%, D-sorbitol 5%, Lutrol 15%, without antigen, 200 ul per injection, 31 gauge 1.5 mm, 1 h and 24 h readings) was “reasonably well-tolerated”, the erythema (swine skin; in vivo) was “moderate to severe erythema” and the “skin reactions as a function of needle depth” value (swine skin; in vivo) was “improved with depth”. For the same compound, the “hemagglutin specific titer vs FLUZONE alone ID and FLUZONE alone IM” value [3] was “outperformed”, the “immune response compared to commercial trivalent vaccine delivered IM” value ([4]; Tween 80 0.9% V/V with trivalent vaccine, 34 g x 1 mm needle, murine model) was “higher mean titers, higher median titers and higher seroconversion” and the seroconversion ([4]; Tween 80 at 5% + FLUZONE, Balb/c mice, ELISA with PR8 test antigen) was 100%. The “Trend in immune response as indicated by ELISA signal (1:123 serum screening dilution)” value (“Trend in immune response as indicated” below) ([4]; excipient 0.1% w/v with FLUZONE) was 0.829, the “Trend in immune response as indicated” value ([4]; excipient 0.3% w/v with FLUZONE) was 1.599 and the “Trend in immune response as indicated” value ([4]; excipient 0.9% w/v with FLUZONE) was 2.647. The “Erythema Draize scores (tolerability)” value (guinea pig skin) was “reasonably well-tolerated” and the hemolysis (RBCs) was “No hemolysis”.
